Assay results as given in the supplement of paper PMC13380429.
Where a name gives a salt, the structure may show the parent alone.

Key:
Conditions in all cases: 72 h
Calu-3 [1] = experiment: drug sensitivity score (DSS) for viability; higher = more toxic; extreme values may be limits of the assay
HepG2 [2] = experiment: as above
U2OS [3] = experiment: as above
Vero E6 [4] = experiment: as above
Caco-2 [5] = experiment: cell viability relative to DMSO; higher = less toxic
Calu-3 [6] = experiment: as above
HepG2 [7] = experiment: as above
U2OS [8] = experiment: as above
Vero E6 [9] = experiment: as above
Calu-3 [10] = experiment: relative viability EC50 (midpoint between 100% and the lowest measured viability); higher = less toxic
HepG2 [11] = experiment: as above
Caco-2 [12] = experiment: drug sensitivity score (DSS) for viability; higher = more toxic; extreme values may be limits of the assay
Caco-2 [13] = experiment: relative viability EC50 (midpoint between 100% and the lowest measured viability); higher = less toxic
U2OS [14] = experiment: as above

| SMILES | drug sensitivity score (Calu-3 [1]) | drug sensitivity score (HepG2 [2]) | drug sensitivity score (U2OS [3]) | drug sensitivity score (Vero E6 [4]) | cell viability (Caco-2 [5]; 1 nM) | cell viability (Caco-2 [5]; 10 nM) | cell viability (Caco-2 [5]; 100 nM) | cell viability (Caco-2 [5]; 1000 nM) | cell viability (Caco-2 [5]; 10000 nM) | cell viability (Calu-3 [6]; 1 nM) | cell viability (Calu-3 [6]; 10 nM) | cell viability (Calu-3 [6]; 100 nM) | cell viability (Calu-3 [6]; 1000 nM) | cell viability (Calu-3 [6]; 10000 nM) | cell viability (HepG2 [7]; 1 nM) | cell viability (HepG2 [7]; 10 nM) | cell viability (HepG2 [7]; 100 nM) | cell viability (HepG2 [7]; 1000 nM) | cell viability (HepG2 [7]; 10000 nM) | cell viability (U2OS [8]; 1 nM) | cell viability (U2OS [8]; 10 nM) | cell viability (U2OS [8]; 100 nM) | cell viability (U2OS [8]; 1000 nM) | cell viability (U2OS [8]; 10000 nM) | cell viability (Vero E6 [9]; 1 nM) | cell viability (Vero E6 [9]; 10 nM) | cell viability (Vero E6 [9]; 100 nM) | cell viability (Vero E6 [9]; 1000 nM) | cell viability (Vero E6 [9]; 10000 nM) | relative viability EC50 (Calu-3 [10]) | relative viability EC50 (HepG2 [11]) | drug sensitivity score (Caco-2 [12]) | relative viability EC50 (Caco-2 [13]) | relative viability EC50 (U2OS [14]) |
| --- | --- | --- | --- | --- | --- | --- | --- | --- | --- | --- | --- | --- | --- | --- | --- | --- | --- | --- | --- | --- | --- | --- | --- | --- | --- | --- | --- | --- | --- | --- | --- | --- | --- | --- |
| CN(C)CC/C=C1/c2ccccc2COc2ccc(CC(=O)O)cc21 [Olopatadine hydrochloride (Opatanol)] | 0 | 0 | 0 | 0 | – | – | – | – | – | – | – | – | – | – | – | – | – | – | – | – | – | – | – | – | – | – | – | – | – | – | – | – | – | – |
| N=C(N)c1ccc(OCCCCCOc2ccc(C(=N)N)cc2)cc1 [pentamidine] | 0 | 13.9 | 1.8 | 3.4 | 90.1% | 93.4% | 92.2% | 93.9% | 71.7% | 94.7% | 104% | 104% | 96% | 94.5% | 104% | 97.5% | 105% | 22.5% | 18.3% | 105% | 105% | 101% | 96.3% | 71.5% | 107% | 65.4% | 92.6% | 79.8% | 82.9% | > 10 µM | 0.39 µM | 1.9 | – | – |
| O=C(Nc1nc2cccc(-c3ccc(CN4CCS(=O)(=O)CC4)cc3)n2n1)C1CC1 [filgotinib] | 0 | 2.3 | – | – | 111% | 104% | 93.2% | 95.7% | 96.5% | 95.7% | 105% | 98.2% | 87.5% | 97.4% | 100% | 99.1% | 96.4% | 102% | 53.4% | – | – | – | – | – | – | – | – | – | – | > 10 µM | – | 0 | > 10 µM | – |
| N[C@H](Cc1cc(I)c(Oc2ccc(O)c(I)c2)c(I)c1)C(=O)O [liothyronine-(isomer)] | – | 0 | 0 | 0 | 99.7% | 92.9% | 100% | 104% | 92.7% | – | – | – | – | – | 109% | 99.7% | 107% | 102% | 105% | 101% | 99.9% | 96.8% | 102% | 96% | 98.8% | 92.9% | 93.1% | 90.7% | 91.1% | – | – | 0 | – | – |
| COc1ccc(C2(CNC(=O)c3ccc(NC(=O)c4ccco4)cc3)CCOCC2)cc1 [JW-55] | – | 0 | 0 | 1.6 | 101% | 91.6% | 97.8% | 92.1% | 93.6% | – | – | – | – | – | 100% | 117% | 94.9% | 102% | 89.3% | 103% | 95.9% | 97.8% | 95.2% | 90.8% | 103% | 108% | 97.3% | 102% | 62.6% | – | > 10 µM | 0 | > 10 µM | > 10 µM |
| CO[C@H]1C[C@@H]2CC[C@@H](C)[C@@](O)(O2)C(=O)C(=O)N2CCCC[C@H]2C(=O)O[C@H]([C@H](C)C[C@@H]2CC[C@H](n3cnnn3)[C@H](OC)C2)CC(=O)[C@H](C)/C=C(\C)[C@@H](O)[C@@H](OC)C(=O)[C@H](C)C[C@H](C)/C=C/C=C/C=C/1C [zotarolimus] | 22.1 | 15.4 | 19.9 | 11.9 | 82.5% | 63.1% | 60% | 52.9% | 60.3% | 68.2% | 59.4% | 54.5% | 46.3% | 52.2% | 84.4% | 74% | 63.1% | 62.9% | 61.1% | 93.4% | 61.8% | 60.2% | 56.9% | 52.5% | 92.6% | 85.2% | 69.6% | 61% | 58.7% | < 0.001 µM | – | 19.5 | – | – |
